Data on 23 molecules can be found in patent US11173162B2, “Bicyclic heterocycles as FGFR4 inhibitors” (Incyte Corporation, priority 2015, dated 2021).

This experiment has as its system FGFR3 enzyme. Nature of the experiment: FGFR Enzymatic Assay (FRET peptide phosphorylation), FGFR3. In kind it is biochemical. The note with it: IC50 ratio showing FGFR3 selectivity; Table 2A, pre-incubated for 4 hours. The method, then:
The inhibitor potency of the exemplified compounds was measured in an enzyme assay that measures peptide phosphorylation using FRET measurements to detect product formation. Inhibitors were serially diluted in DMSO and a volume of 0.5 μL was transferred to the wells of a 384-well plate.
GraphPad prism3 was used to analyze the data.
On to `COc1cc(OC)c(F)c(N2Cc3cnc(-c4cn(C)nc4C)cc3N(c3cnn(C4CC4)c3)C2=O)c1F` [Example 130, 1-(1-cyclopropyl-1H-pyrazol-4-yl)-3-(2,6-difluoro-3,5-dimethoxyphenyl)-7-(1,3-dimethyl-1H-pyrazol-4-yl)-3,4-dihydropyrido[4,3-d]pyrimidin-2(1H)-one], for which the FGFR1/FGFR3 was over 5 and the FGFR4/FGFR3 was over 5.

For `CCn1cc(N2C(=O)N(c3c(F)c(OC)cc(OC)c3F)Cc3cnc(-c4cn(C)nc4C)cc32)cn1` [Example 131, 3-(2,6-difluoro-3,5-dimethoxyphenyl)-7-(1,3-dimethyl-1H-pyrazol-4-yl)-1-(1-ethyl-1H-pyrazol-4-yl)-3,4-dihydropyrido[4,3-d]pyrimidin-2(1H)-one], the FGFR1/FGFR3 is given as over 3 and the FGFR4/FGFR3 is on record as over 10.

With `CCCn1cc(N2C(=O)N(c3c(F)c(OC)cc(OC)c3F)Cc3cnc(-c4cn(C)nc4C)cc32)cn1` [Example 132, 3-(2,6-difluoro-3,5-dimethoxyphenyl)-7-(1,3-dimethyl-1H-pyrazol-4-yl)-1-(1-propyl-1H-pyrazol-4-yl)-3,4-dihydropyrido[4,3-d]pyrimidin-2(1H)-one], the FGFR1/FGFR3 is reported as over 3 and the FGFR4/FGFR3 was over 5.

As for `COc1cc(OC)c(F)c(N2Cc3cnc(-c4cn(C)nc4C)cc3N(c3ccc4cn[nH]c4c3)C2=O)c1F` [Example 133, 3-(2,6-difluoro-3,5-dimethoxyphenyl)-7-(1,3-dimethyl-1H-pyrazol-4-yl)-1-(1H-indazol-6-yl)-3,4-dihydropyrido[4,3-d]pyrimidin-2(1H)-one], the FGFR1/FGFR3 is on record as over 3 and the FGFR4/FGFR3 was over 5.

In the case of `COc1cc(OC)c(F)c(N2Cc3cnc(-c4cn(C)nc4C)cc3N(c3ccc4[nH]ncc4c3)C2=O)c1F` [Example 134, 3-(2,6-difluoro-3,5-dimethoxyphenyl)-7-(1,3-dimethyl-1H-pyrazol-4-yl)-1-(1H-indazol-5-yl)-3,4-dihydropyrido[4,3-d]pyrimidin-2(1H)-one], the FGFR1/FGFR3 is given as over 3 and the FGFR4/FGFR3 is given as over 5.

For `COc1cc(OC)c(F)c(N2Cc3cnc(-c4ccc(C5(C#N)CCC5)nc4)cc3N(c3ccncn3)C2=O)c1F` [Example 135, 1-(5-(3-(2,6-difluoro-3,5-dimethoxyphenyl)-2-oxo-1-(pyrimidin-4-yl)-1,2,3,4-tetrahydropyrido[4,3-d]pyrimidin-7-yl)pyridin-2-yl)cyclobutanecarbonitrile], the FGFR1/FGFR3 is on record as over 5 and the FGFR4/FGFR3 is over 10.

As to `COc1cc(OC)c(F)c(N2Cc3cnc(-c4cn(CCCN5CCOCC5)nc4C)cc3C3(CC3)C2=O)c1F` [Example 146, 2′-(2,6-difluoro-3,5-dimethoxyphenyl)-6′-(3-methyl-1-(3-morpholinopropyl)-1H-pyrazol-4-yl)-1′H-spiro[cyclopropane-1,4′-[2,7]naphthyridin]-3′(2′H)-one], the FGFR1/FGFR3 is over 10 and the FGFR4/FGFR3 was over 5.

As to `COc1cc(OC)c(F)c(N2Cc3cnc(-c4cnn(C5CCN(S(C)(=O)=O)C5)c4)cc3C3(CC3)C2=O)c1F` (stereo not shown) [Example 147, 2′-(2,6-difluoro-3,5-dimethoxyphenyl)-6′-(1-(1-(methylsulfonyl)pyrrolidin-3-yl)-1H-pyrazol-4-yl)-1′H-spiro[cyclopropane-1,4′-[2,7]naphthyridin]-3′(2′H)-one], the FGFR1/FGFR3 is over 10 and the FGFR4/FGFR3 was over 3.

`COc1cc(OC)c(F)c(N2Cc3cnc(-c4cnn(CCC5CCN(S(C)(=O)=O)CC5)c4)cc3C3(CC3)C2=O)c1F` [Example 148, 2′-(2,6-difluoro-3,5-dimethoxyphenyl)-6′-(1-(2-(1-(methylsulfonyl)piperidin-4-yl)ethyl)-1H-pyrazol-4-yl)-1′H-spiro[cyclopropane-1,4′-[2,7]naphthyridin]-3′(2′H)-one]: the FGFR1/FGFR3 is listed as over 10 and the FGFR4/FGFR3 is given as over 3.

For the molecule `COc1cc(OC)c(F)c(N2Cc3cnc(-c4cnn(C5(C#N)CCC5)c4C)cc3C3(CC3)C2=O)c1F` [Example 149, 1-(4-(2′-(2,6-difluoro-3,5-dimethoxyphenyl)-3′-oxo-2′,3′-dihydro-1′H-spiro[cyclopropane-1,4′-[2,7]naphthyridine]-6′-yl)-5-methyl-1H-pyrazol-1-yl)cyclobutanecarbonitrile], the FGFR1/FGFR3 was over 5 and the FGFR4/FGFR3 is given as over 3.

Regarding `COc1cc(OC)c(F)c(N2Cc3cnc(-c4cnn(C5CCN(C(C)=O)C5)c4)cc3C3(CC3)C2=O)c1F` (stereo not shown) [Example 150, 6′-(1-(1-acetylpyrrolidin-3-yl)-1H-pyrazol-4-yl)-2′-(2,6-difluoro-3,5-dimethoxyphenyl)-1′H-spiro[cyclopropane-1,4′-[2,7]naphthyridin]-3′(2′H)-one], the FGFR1/FGFR3 is recorded as over 5 and the FGFR4/FGFR3 is recorded as over 5.

Regarding `COc1cc(OC)c(F)c(N2Cc3cnc(-c4cnn(CCCN5CCOCC5)c4)cc3C3(CC3)C2=O)c1F` [Example 151, 2′-(2,6-difluoro-3,5-dimethoxyphenyl)-6′-(1-(3-morpholinopropyl)-1H-pyrazol-4-yl)-1′H-spiro[cyclopropane-1,4′-[2,7]naphthyridin]-3′(2′H)-one], the FGFR1/FGFR3 is over 5 and the FGFR4/FGFR3 was over 5.

As to `COc1cc(OC)c(F)c(N2Cc3cnc(-c4cnn(CCN5CCC(OC)CC5)c4)cc3C3(CC3)C2=O)c1F` [Example 152, 2′-(2,6-difluoro-3,5-dimethoxyphenyl)-6′-(1-(2-(4-methoxypiperidin-1-yl)ethyl)-1H-pyrazol-4-yl)-1′H-spiro[cyclopropane-1,4′-[2,7]naphthyridin]-3′(2′H)-one], the FGFR1/FGFR3 was over 5 and the FGFR4/FGFR3 was over 3.

As for `COc1cc(OC)c(F)c(N2Cc3cnc(-c4cn(CC#N)nc4C)cc3C3(CC3)C2=O)c1F` [Example 153, 2-(4-(2′-(2,6-difluoro-3,5-dimethoxyphenyl)-3′-oxo-2′,3′-dihydro-1′H-spiro[cyclopropane-1,4′-[2,7]naphthyridine]-6′-yl)-3-methyl-1H-pyrazol-1-yl)acetonitrile], the FGFR1/FGFR3 was over 5 and the FGFR4/FGFR3 was over 3.

With `COc1cc(OC)c(F)c(N2Cc3cnc(-c4cn(C5CCN(CC#N)C5)nc4C)cc3C3(CC3)C2=O)c1F` (stereo not shown) [Example 154, 2-(3-(4-(2′-(2,6-difluoro-3,5-dimethoxyphenyl)-3′-oxo-2′,3′-dihydro-1′H-spiro[cyclopropane-1,4′-[2,7]naphthyridine]-6′-yl)-3-methyl-1H-pyrazol-1-yl)pyrrolidin-1-yl)acetonitrile], the FGFR1/FGFR3 was over 5 and the FGFR4/FGFR3 is given as over 3.

As to `COc1cc(OC)c(F)c(N2Cc3cnc(-c4cn(Cc5cccnc5)nc4C)cc3C3(CC3)C2=O)c1F` [Example 155, 2′-(2,6-difluoro-3,5-dimethoxyphenyl)-6′-(3-methyl-1-(pyridin-3-ylmethyl)-1H-pyrazol-4-yl)-1′H-spiro[cyclopropane-1,4′-[2,7]naphthyridin]-3′(2′H)-one], the FGFR1/FGFR3 is over 5 and the FGFR4/FGFR3 is recorded as over 1.

With `COc1cc(OC)c(F)c(N2Cc3cnc(-c4cn(CCC#N)nc4C)cc3C3(CC3)C2=O)c1F` [Example 156, 3-(4-(2′-(2,6-difluoro-3,5-dimethoxyphenyl)-3′-oxo-2′,3′-dihydro-1′H-spiro[cyclopropane-1,4′-[2,7]naphthyridine]-6′-yl)-3-methyl-1H-pyrazol-1-yl)propanenitrile], the FGFR1/FGFR3 was over 5 and the FGFR4/FGFR3 is given as over 1.

Turning to `COc1cc(OC)c(F)c(N2Cc3cnc(-c4cnn(CCN5CCOCC5)c4)cc3C3(CC3)C2=O)c1F` [Example 157, 2′-(2,6-difluoro-3,5-dimethoxyphenyl)-6′-(1-(2-morpholinoethyl)-1H-pyrazol-4-yl)-1′H-spiro[cyclopropane-1,4′-[2,7]naphthyridin]-3′(2′H)-one], the FGFR1/FGFR3 was over 5 and the FGFR4/FGFR3 is on record as over 3.

As for `CCn1cc(-c2cc3c(cn2)CN(c2c(F)c(OC)cc(OC)c2F)C(=O)C32CC2)c(C)n1` [Example 158, 2′-(2,6-difluoro-3,5-dimethoxyphenyl)-6′-(1-ethyl-3-methyl-1H-pyrazol-4-yl)-1′H-spiro[cyclopropane-1,4′-[2,7]naphthyridin]-3′(2′H)-one], the FGFR1/FGFR3 is over 5 and the FGFR4/FGFR3 is listed as over 3.

Regarding `COc1cc(OC)c(F)c(N2Cc3cnc(-c4cn(CC(=O)N5CCOCC5)nc4C)cc3C3(CC3)C2=O)c1F` [Example 159, 2′-(2,6-difluoro-3,5-dimethoxyphenyl)-6′-(3-methyl-1-(2-morpholino-2-oxoethyl)-1H-pyrazol-4-yl)-1′H-spiro[cyclopropane-1,4′-[2,7]naphthyridin]-3′(2′H)-one], the FGFR1/FGFR3 is listed as over 5 and the FGFR4/FGFR3 is on record as over 3.

Turning to `COc1cc(OC)c(F)c(N2Cc3cnc(-c4csc(N(C)C)n4)cc3C3(CC3)C2=O)c1F` [Example 160, 2′-(2,6-difluoro-3,5-dimethoxyphenyl)-6′-(2-(dimethylamino)thiazol-4-yl)-1′H-spiro[cyclopropane-1,4′-[2,7]naphthyridin]-3′(2′H)-one], the FGFR1/FGFR3 is over 5 and the FGFR4/FGFR3 is reported as over 5.

Take `COc1cc(OC)c(F)c(N2Cc3cnc(-c4cnn(CCN5CCC(OC)C5)c4)cc3C3(CC3)C2=O)c1F` (stereo not shown) [Example 161, 2′-(2,6-difluoro-3,5-dimethoxyphenyl)-6′-(1-(2-(3-methoxypyrrolidin-1-yl)ethyl)-1H-pyrazol-4-yl)-1′H-spiro[cyclopropane-1,4′-[2,7]naphthyridin]-3′(2′H)-one]: the FGFR1/FGFR3 was over 5 and the FGFR4/FGFR3 was over 3.

As to `COc1cc(OC)c(F)c(N2Cc3cnc(-c4cnn(CC5CCCS(=O)(=O)N5)c4)cc3C3(CC3)C2=O)c1F` (stereo not shown) [Example 162, 2′-(2,6-difluoro-3,5-dimethoxyphenyl)-6′-{1-[(1,1-dioxido-1,2-thiazinan-3-yl)methyl]-1H-pyrazol-4-yl}-1′H-spiro[cyclopropane-1,4′-[2,7]naphthyridin]-3′(2′H)-one], the FGFR1/FGFR3 is on record as over 5 and the FGFR4/FGFR3 is on record as over 1.
